Consider 20 molecules from PubChem BioAssay (NCI).

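Results reflect a 48-hour exposure of cells in 96-well plates to compound at five concentrations. TGI denotes the concentration required for complete inhibition of growth.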 Some results are limits rather than exact numbers.

Among the test systems are UO-31 renal; SNB-19 CNS; UACC-62 melanoma; OVCAR-3 ovarian; NCI-H522 lung; MOLT-4 leukemia; KM12 colon; SK-OV-3 ovarian; HCT-15 colon; 786-0 renal; UACC-257 melanoma; HT29 colon; NCI-H460 lung; A498 renal.
What all share (assay): NCI-60 cell line screen, 48 h

For the molecule `C[C@@]1(Cc2ccccc2)C(=O)N2[C@@H](CO)C(c3ccccc3)O[C@]2(C)c2ccccc21` (stereo partly specified), the TGI in the assay on UO-31 renal, in the assay with SNB-19 CNS, in the assay on UACC-62 melanoma, with OVCAR-3 ovarian, with NCI-H522 lung and in the assay with MOLT-4 leukemia was greater than 100 µM throughout. For the same molecule, the TGI in the assay with KM12 colon, in the assay with SK-OV-3 ovarian, in the assay with HCT-15 colon and with 786-0 renal was greater than 100 µM each time.
Regarding `CCN(CC)CCC1(C2CCCCC2)CCC(=O)NC1=O` (stereo unspecified), the TGI with UO-31 renal, in the assay with UACC-257 melanoma, in the assay on SNB-19 CNS, in the assay on UACC-62 melanoma, with OVCAR-3 ovarian and in the assay on NCI-H522 lung was greater than 100 µM in each case. The TGI in the assay with MOLT-4 leukemia, with HT29 colon, in the assay on KM12 colon, in the assay on SK-OV-3 ovarian, in the assay with HCT-15 colon and in the assay with 786-0 renal was greater than 100 µM in each case. In addition, the TGI in the assay with NCI-H460 lung and in the assay on A498 renal was greater than 100 µM throughout.
As to `C[C@@H]1O[C@]2(O)[C@@H]3CCCN3S(=O)(=O)CCN2C1=O`, the TGI in the assay on UO-31 renal, in the assay with UACC-257 melanoma, with SNB-19 CNS, with UACC-62 melanoma, with OVCAR-3 ovarian and with NCI-H522 lung was greater than 100 µM throughout. The TGI in the assay with MOLT-4 leukemia, in the assay on HT29 colon, in the assay on KM12 colon, with SK-OV-3 ovarian, in the assay with HCT-15 colon and with 786-0 renal was greater than 100 µM each time. Further, the TGI in the assay on NCI-H460 lung and in the assay on A498 renal was greater than 100 µM in each case.
`O=C(Cc1ccc([N+](=O)[O-])c([N+](=O)[O-])c1CC(=O)C(=O)Nc1cc(Cl)ccc1Cl)C(=O)Nc1cc(Cl)ccc1Cl`: the TGI in the assay on UO-31 renal, in the assay with UACC-257 melanoma, in the assay on SNB-19 CNS, in the assay on UACC-62 melanoma, in the assay with OVCAR-3 ovarian and in the assay on MOLT-4 leukemia was greater than 100 µM throughout. Further, the TGI in the assay with HT29 colon was greater than 100 µM; in the assay on KM12 colon it was greater than 100 µM; in the assay on SK-OV-3 ovarian, greater than 100 µM; in the assay on HCT-15 colon, 45.1 µM; with 786-0 renal it was greater than 100 µM; with NCI-H460 lung, greater than 100 µM. The molecule further gave a TGI with A498 renal greater than 100 µM.
Regarding `COc1ccccc1-n1c(N)c2c(C)c(-c3ccccc3)[nH]c2nc1=S`, the TGI in the assay on UO-31 renal, with UACC-257 melanoma, with SNB-19 CNS, in the assay with UACC-62 melanoma, with OVCAR-3 ovarian and in the assay with NCI-H522 lung was greater than 100 µM in each case. The TGI with MOLT-4 leukemia, with KM12 colon, in the assay on HCT-15 colon, in the assay on 786-0 renal, with NCI-H460 lung and in the assay with A498 renal was greater than 100 µM throughout.
For the molecule `COc1cc(OC)c2c(=O)c3c([N+](=O)[O-])cccc3n(C)c2c1`, the TGI with UO-31 renal, in the assay with UACC-257 melanoma, in the assay with SNB-19 CNS, in the assay on UACC-62 melanoma, with OVCAR-3 ovarian and with NCI-H522 lung was greater than 100 µM in each case. Besides, the TGI with MOLT-4 leukemia, in the assay on HT29 colon, in the assay with KM12 colon, with SK-OV-3 ovarian, with HCT-15 colon and in the assay with 786-0 renal was greater than 100 µM in each case. Besides, the TGI in the assay on NCI-H460 lung and in the assay with A498 renal was greater than 100 µM throughout.
For `CCOC(=O)CCC(NC(=O)c1ccc(N=Cc2nc3ccccc3nc2-c2ccccc2)cc1)C(=O)OCC` (stereo unspecified), the TGI in the assay on UO-31 renal, in the assay on UACC-257 melanoma, in the assay on SNB-19 CNS, in the assay on UACC-62 melanoma, with OVCAR-3 ovarian and in the assay with NCI-H522 lung was greater than 100 µM each time. Besides, the TGI in the assay with MOLT-4 leukemia, with HT29 colon, in the assay with KM12 colon, in the assay with SK-OV-3 ovarian, in the assay with HCT-15 colon and in the assay on 786-0 renal was greater than 100 µM throughout. Moreover, the TGI with NCI-H460 lung and with A498 renal was greater than 100 µM in each case.
Consider `CCOc1ccc(/C=C(\Cl)c2ccc(OC)cc2)cc1`, for which the TGI with UO-31 renal, in the assay on UACC-257 melanoma, with SNB-19 CNS, with UACC-62 melanoma, in the assay on NCI-H522 lung and in the assay on MOLT-4 leukemia was greater than 100 µM in each case. Further, the TGI with HT29 colon, in the assay with SK-OV-3 ovarian, with HCT-15 colon, with 786-0 renal and in the assay with A498 renal was greater than 100 µM throughout.
`C[C@@H]1OC2(O)[C@H]3CCCN3S(=O)(=O)CCN2C1=O` (stereo partly specified): the TGI in the assay with UO-31 renal, with UACC-257 melanoma, in the assay on SNB-19 CNS, in the assay on UACC-62 melanoma, in the assay on OVCAR-3 ovarian and in the assay on NCI-H522 lung was greater than 100 µM each time. The TGI with MOLT-4 leukemia, with HT29 colon, with KM12 colon, with SK-OV-3 ovarian, in the assay with HCT-15 colon and in the assay with 786-0 renal was greater than 100 µM throughout. Moreover, the TGI with NCI-H460 lung and in the assay on A498 renal was greater than 100 µM each time.
For the molecule `CCOC(=O)C(/C(=N\NC(=O)OC)C(=O)Nc1cc(OC)ccc1OC)c1cnc2ccccc2n1` (stereo unspecified), the TGI in the assay on UO-31 renal, with UACC-257 melanoma, in the assay with UACC-62 melanoma, with NCI-H522 lung, in the assay on HT29 colon and with SK-OV-3 ovarian was greater than 100 µM in each case. For the same molecule, the TGI with HCT-15 colon, with 786-0 renal, in the assay on NCI-H460 lung and with A498 renal was greater than 100 µM in each case.
Take `O=C(N/N=C(/c1nc2ccc([N+](=O)[O-])cc2[nH]c1=O)C(O)c1ccc([N+](=O)[O-])cc1)c1ccncc1` (stereo unspecified): the TGI with UO-31 renal, with UACC-257 melanoma, in the assay on UACC-62 melanoma, with NCI-H522 lung, in the assay with MOLT-4 leukemia and in the assay on HT29 colon was greater than 100 µM in each case. In addition, the TGI in the assay with KM12 colon, in the assay on SK-OV-3 ovarian, with HCT-15 colon, in the assay on 786-0 renal, in the assay on NCI-H460 lung and with A498 renal was greater than 100 µM throughout.
As to `CCOC(=O)c1cnc2c(ccc3[nH]cccc32)c1=O`, the TGI in the assay on UO-31 renal, with UACC-257 melanoma, in the assay with SNB-19 CNS, in the assay on UACC-62 melanoma, in the assay on OVCAR-3 ovarian and with NCI-H522 lung was greater than 100 µM in each case. Moreover, the TGI in the assay with MOLT-4 leukemia, with HT29 colon, with KM12 colon, with SK-OV-3 ovarian, with HCT-15 colon and with 786-0 renal was greater than 100 µM throughout. For the same molecule, the TGI in the assay with NCI-H460 lung and with A498 renal was greater than 100 µM in each case.
For the molecule `CC1(C)OCN(c2ccc(S(N)(=O)=O)cc2)Cn2c1nc1ccccc12`, the TGI in the assay on UO-31 renal, with UACC-257 melanoma, in the assay with SNB-19 CNS, with UACC-62 melanoma, with OVCAR-3 ovarian and with NCI-H522 lung was greater than 100 µM in each case. The TGI with MOLT-4 leukemia, in the assay on HT29 colon, in the assay on KM12 colon, in the assay with SK-OV-3 ovarian, with HCT-15 colon and in the assay on 786-0 renal was greater than 100 µM each time. For the same molecule, the TGI in the assay with NCI-H460 lung and in the assay on A498 renal was greater than 100 µM in each case.
In the case of `COc1cc(C2C(C(=O)Nc3ccc([N+](=O)[O-])cc3)=C(C)NC(C)=C2C(=O)Nc2ccc([N+](=O)[O-])cc2)ccc1O`, the TGI in the assay with UO-31 renal is 46.3 µM; in the assay with UACC-257 melanoma, 54.6 µM; in the assay on SNB-19 CNS, greater than 73.9 µM; in the assay on UACC-62 melanoma, 42 µM; in the assay with OVCAR-3 ovarian, 55.7 µM; with NCI-H522 lung, 39.7 µM. The TGI in the assay with MOLT-4 leukemia is 75.4 µM; in the assay on HT29 colon it was 38.1 µM; in the assay with KM12 colon, 39 µM; in the assay on SK-OV-3 ovarian, 77.8 µM; with HCT-15 colon, 50.8 µM; with 786-0 renal, greater than 100 µM. The figures for the TGI in the assay with NCI-H460 lung and in the assay on A498 renal were greater than 62.1 µM and 99.8 µM, respectively.
On to `Clc1ccc(CCc2ccncn2)c(Cl)c1`, for which the TGI with UO-31 renal was 94 µM; in the assay on UACC-257 melanoma, greater than 100 µM; in the assay on SNB-19 CNS, greater than 100 µM; in the assay on UACC-62 melanoma, greater than 100 µM; with OVCAR-3 ovarian it was greater than 100 µM; with NCI-H522 lung it was greater than 100 µM. The TGI with MOLT-4 leukemia, in the assay with HT29 colon, with KM12 colon, in the assay with SK-OV-3 ovarian, with HCT-15 colon and in the assay with 786-0 renal was greater than 100 µM in each case. Further, the TGI in the assay on NCI-H460 lung and in the assay on A498 renal was greater than 100 µM each time.
On to `COc1ccccc1-n1c(NN)nc2ccc(Br)cc2c1=O`, for which the TGI was 93.1 µM in the assay with UO-31 renal; 72.1 µM in the assay on UACC-257 melanoma; greater than 100 µM in the assay with SNB-19 CNS; greater than 100 µM with UACC-62 melanoma; greater than 100 µM in the assay on OVCAR-3 ovarian; 63.2 µM in the assay with NCI-H522 lung. Moreover, the TGI was greater than 100 µM in the assay on MOLT-4 leukemia; greater than 100 µM in the assay with HT29 colon; greater than 100 µM in the assay on KM12 colon; 99.3 µM in the assay on SK-OV-3 ovarian; greater than 100 µM in the assay with HCT-15 colon; greater than 100 µM with 786-0 renal. In the assay with NCI-H460 lung, this molecule showed a TGI greater than 100 µM.
On to `CCCCNC(=NCc1ccccc1)NC#N`, for which the TGI in the assay on UO-31 renal, in the assay with SNB-19 CNS, in the assay on UACC-62 melanoma, in the assay on OVCAR-3 ovarian, in the assay with NCI-H522 lung and in the assay with MOLT-4 leukemia was greater than 100 µM each time. Further, the TGI with HT29 colon, with KM12 colon, with SK-OV-3 ovarian, in the assay with HCT-15 colon, with 786-0 renal and in the assay with NCI-H460 lung was greater than 100 µM in each case. In addition, the TGI in the assay on A498 renal was greater than 100 µM.
Consider `C/C(=N\NC(=S)NC(CCC(=O)O)C(=O)O)c1cnccn1` (stereo unspecified), for which the TGI in the assay on UO-31 renal, in the assay on UACC-257 melanoma, in the assay with SNB-19 CNS, in the assay on UACC-62 melanoma, with OVCAR-3 ovarian and in the assay on NCI-H522 lung was greater than 100 µM in each case. The TGI in the assay with MOLT-4 leukemia, in the assay on HT29 colon, in the assay with KM12 colon, with SK-OV-3 ovarian, with HCT-15 colon and in the assay with 786-0 renal was greater than 100 µM in each case. The TGI with NCI-H460 lung and with A498 renal was greater than 100 µM in each case.
As to `CC12C(=C(C#N)C(=N)N1c1ccc(Cl)c(Cl)c1)C=C(O)CC2SCCS(=O)(=O)O` (stereo unspecified), the TGI in the assay on UO-31 renal, with UACC-257 melanoma, in the assay with SNB-19 CNS, in the assay on UACC-62 melanoma, in the assay with OVCAR-3 ovarian and with NCI-H522 lung was greater than 100 µM each time. Also, the TGI with MOLT-4 leukemia, in the assay with HT29 colon, with KM12 colon, with SK-OV-3 ovarian, in the assay with HCT-15 colon and with 786-0 renal was greater than 100 µM in each case. In addition, the TGI with A498 renal is greater than 100 µM.
With `N#C/C(=C\c1cc(O)ccc1O)C(N)=O`, the TGI in the assay on UO-31 renal was greater than 100 µM; in the assay on UACC-257 melanoma, greater than 100 µM; with SNB-19 CNS, greater than 100 µM; in the assay on UACC-62 melanoma it was 88.1 µM; in the assay on OVCAR-3 ovarian it was greater than 100 µM; with NCI-H522 lung, 41 µM. The TGI in the assay on MOLT-4 leukemia was 60.1 µM; in the assay on HT29 colon, greater than 100 µM; in the assay on KM12 colon, greater than 100 µM; with SK-OV-3 ovarian, greater than 100 µM; with HCT-15 colon it was greater than 100 µM; in the assay on 786-0 renal it was greater than 100 µM. In addition, the TGI in the assay on NCI-H460 lung and with A498 renal was greater than 100 µM in each case.
